Assay results as given in patent US8168650B2, “Therapeutic uses of bicyclic ligands of sigma 2 receptor” (priority 2006, dated 2012).
Structures can show the parent of a compound that is named as a salt. Where two headings read alike, the source gives them in different places. Peptide text beside a SMILES is read from it. * marks the point of attachment. Cbz = O=C(OCc1ccccc1)*; CH2F = FC*

Columns and labels:
Panc-02 cells = assay: Caspase inhibitors on sigma-2 receptor ligand-induced apoptosis in Panc-02 cells; format: cell-based, mouse
Description: (§1) Tumor cells were seeded at a density of approximately 0.2×10^6 cells per well in 12-well plates in 1.0 ml culture medium. Cells were split and pre-incubated at 37° C. in humidified 5% CO2 for more than 24 hours (Panc-02) and 48 hours (CFPAC-1, AsPC-1, Panc-1) to insure uniform growth conditions. Compounds were dissolved in DMSO and added to the culture medium at the concentrations indicated. The final concentration of DMSO in the cell culture medium was less than 1%. The cells were then incubated for 24 hours at 37° C. in humidified 5% CO2. The extent of apoptosis was subsequently measured as previously reported (Guelen, L., et al., Oncogene 2004, 23: 1153-1165). Briefly, staining was performed on trypsin-EDTA treated cultures that had been fixed with 1% paraformaldehyde and 90% methanol. Cell pellets were resuspended in TUNEL reagent (APO-BRDU kit, San Diego, Calif.) or cleaved caspase-3 antibody (Cell Signaling Technology, Inc. Boston, Mass.) and incubated overnight at room temperature (TUNEL) or 4° C. (cleaved caspase-3). After washing, cells were resuspended in fluorescein antibody or 7-AAD buffer and incubated for 1 hour at room temperature. Cell-associated fluorescence was determined using a flow cytometry (FACScan, BD Biosciences) and analyzed with CellQuest software (BD Biosciences).
(§2) At the highest dose tested (10 μM), all sigma-2 receptor ligands induced an additional 10-20% of the cells to undergo apoptosis (FIG. 15A). […] The pan-caspase inhibitor (Z-VAD-fmk) and caspase-3/7 inhibitor (DEVD-CHO) prevented sigma-2 receptor ligand-induced apoptosis in panc-02 cells, while the caspase-1 inhibitor (YVAD-CHO) had no effect (FIG. 15B).

sigma-2 receptors = target: T1, sigma-2 receptors (Mus musculus, UniProt Q8VD00); assay: Saturation binding (Scatchard analysis) of [3H]RHM-1 in Panc-02 tumor allograft membrane homogenates
T1 construct: Membrane homogenates were prepared from ˜400 mg Panc-02 mouse tumor allografts; from tissue; host or cells: Panc-02 mouse pancreatic tumor allografts (membrane homogenates)
T1 sequence (Q8VD00 1-176): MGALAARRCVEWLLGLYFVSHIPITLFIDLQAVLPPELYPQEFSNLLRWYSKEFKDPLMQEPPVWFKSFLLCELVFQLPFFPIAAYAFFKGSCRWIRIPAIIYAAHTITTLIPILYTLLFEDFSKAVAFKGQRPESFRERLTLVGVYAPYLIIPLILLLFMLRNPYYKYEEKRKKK
Description: Membrane homogenates were prepared from ˜400 mg Panc-02 mouse tumor allografts, which were removed from tumor bearing mice and frozen on dry ice immediately and stored at −80° C. until used. Before homogenization, the tumor allografts were allowed to thaw slowly on ice. Tissue homogenization was carried out at 4° C. using a Potter-Elvehjem tissue grinder at a concentration of 1 g of tissue/ml of 50 mM Tris-HCl at pH 8.0. The crude membrane homogenate was then transferred to a 50 ml centrifuge tube and resuspended to a concentration of 200 mg of tissue/ml of 50 mM Tris-HCl. Additional homogenization was accomplished using an Ultra-Turrax T8 polython homogenizer (IKA Works, Inc, Wilmington, N.C.). The final homogenate was then centrifuged for 10 min at 1000 g, the pellet discarded and the supernatant mixed by vortexing and stored at −80° C. until used. The protein concentration of the suspension was determined (DC protein assay, Bio-Rad, Hercules, Calif.) and averaged ˜10 mg of protein/ml of stock solution. […] The concentrations of the radioligand ranged from 0.1-18 nM. […] Each filter was washed with 200 μl of ice-cold wash buffer for a total of three washes. […] The equilibrium dissociation constant (Kd) and maximum number of binding sites (BBmax) were determined by a linear regression analysis of the transformed data using the method of Scatchard.
Data from saturation radioligand binding studies was transformed to determine the Hill coefficient, nH, defined as: […]
In these experiments, direct saturation binding studies were carried out using [^3H]RHM-1 with membrane homogenates of PancO2 tumor allografts.

CFPAC-1 = assay: Apoptosis in CFPAC-1 cells; format: cell-based, human; details: CFPAC-1, highest dose tested
Description: as §1, with “Biosciences). […]” for “Biosciences).”

[1] = test system: pancreatic cancer cell lines (Panc-02, CFPAC-1, AsPC-1, Panc-1); assay: Apoptosis in pancreas cancer cell lines (TUNEL / cleaved caspase-3, flow cytometry); format: cell-based, mouse, human; details: all cell lines tested with the exception of CFPAC-1
Description: as §1, §2

EMT-6 cells [2] = details: EMT-6, 1 h pre-incubation with inhibitor (100 μM); for effect on cell death / cytotoxic effects induced by the three σ2 selective ligands: MTS assay
Description: To determine the effect of blocking the caspase-dependent apoptotic pathway on sigma ligand-induced cell killing, the caspase inhibitors, Z-VAD-FMK or Z-DEVD-FMK (Calbiochem, San Diego, Calif.) were added to the culture medium 1 hour before the sigma ligands, and the MTS assay performed as described above.

EMT-6 cells [3] = assay: Colony formation assay on Doxorubicin-treated EMT-6 cells; format: cell-based, mouse
Description: This Example illustrates colony formation assay on Doxorubicin (“Dox”)-treated EMT-6 cells in the presence or absence of 2 μM WC-II-26. The structures of the sigma ligands used in this and subsequent examples are illustrated in FIG. 5 and FIG. 6.

EMT-6 cells [4] = assay: TUNEL assay, enhancement of Dox-induced apoptosis in EMT-6 cells; format: cell-based, mouse; details: EMT-6, Dox 30 nM alone
Description: In these experiments, a TUNEL assay was used to detect apoptotic cells with damaged DNA strands. […] Furthermore, EMT-6 cells treated with Dox at 30 nM yielded only 10% TUNEL-positive cells. However, when EMT-6 cells were treated with 2 μM WC-II-26 plus 30 nM Dox, the percentage of TUNEL-positive cells rose to 43.3%.

[5] = membrane homogenates of Panc-02 tumor allografts

Compound: CC(=O)N[C@@H](Cc1ccc(O)cc1)C(=O)N[C@H](C(=O)N[C@@H](C)C(=O)N[C@H](C=O)CC(=O)O)C(C)C [YVAD-CHO]
- effect on sigma-2 receptor ligand-induced apoptosis (Panc-02 cells): no effect

Compound: COc1cc2c(cc1OC)CN(CCCCNC(=O)c1cc(C)ccc1OC)CC2 [[3H]RHM-1]
- Bmax (maximum number of binding sites) (sigma-2 receptors; [5]): 1250 fmol/mg protein
- Kd (sigma-2 receptors; [5]): 4.88 nM
- Hill coefficient nH (mean) (sigma-2 receptors; saturation binding, Panc-02 tumor allografts): close to unity

Compound: CC(C)=CCN1CCC2(C)c3cc(O)ccc3CC1C2C (stereo not drawn) [pentazocine, reference compound]
- increase in apoptosis (CFPAC-1): 8-10%
- toxicity to pancreas cancer cell lines [1]: minimal toxicity

Compound: COc1ccc(C)cc1NC(=O)OC1CC2CCCC(C1)N2CCCCCCNS(=O)(=O)c1cccc2c(N(C)C)cccc12 (stereo not drawn) (as salt: oxalate) [Compound 9, N-(9-(6-(5-Dimethylamino-1-naphthalenesulfonamido))hexyl)-9-azabicyclo[3.3.1]-nonan-3α-yl-N-(2-methoxy-5-methylphenyl)carbamate oxalate]
- melting point: 162 to 163 °C

Compound: COC(=O)C[C@H](NC(=O)[C@H](C)NC(=O)[C@@H](NC(=O)OCc1ccccc1)C(C)C)C(=O)CF [Z-VAD-FMK] (Cbz-Val-Ala-Asp(OMe)-CH2F)
- effect on sigma-2 receptor ligand-induced apoptosis (Panc-02 cells): prevented
- effect on DNA fragmentation after treatment with the three σ2 selective ligands (EMT-6 cells [2]): partially blocked
- effect on cell death / cytotoxic effects induced by the three σ2 selective ligands (EMT-6 cells [2]): partially, but not completely, blocked
- effect on cell death / cytotoxic effects induced by the three σ2 selective ligands (EMT-6 cells [2]; listed as Z-VADFMK): partially blocked

Compound: COc1cccc2c1C(=O)c1c(O)c3c(c(O)c1C2=O)C[C@@](O)(C(=O)CO)C[C@@H]3O[C@H]1C[C@H](N)[C@H](O)[C@H](C)O1 [Dox, Doxorubicin, reference compound]
- number of colonies formed compared to control cells (EMT-6 cells [3]; EMT-6, 10, 20, and 30 nM of Dox alone): not changed significantly
- decrease in colony forming efficiency (EMT-6 cells [3]; EMT-6, Dox 40 nM alone): about 25%
- TUNEL-positive cells (EMT-6 cells [4]): 10%

Compound: CC(=O)N[C@@H](CC(=O)O)C(=O)N[C@@H](CCC(=O)O)C(=O)N[C@H](C(=O)N[C@H](C=O)CC(=O)O)C(C)C [DEVD-CHO]
- effect on sigma-2 receptor ligand-induced apoptosis (Panc-02 cells): prevented
